Values quoted from earlier work, collected in patent US20100179106A1, “MITOCHONDRIAL COMPOSITIONS AND USES THEREOF” (Gencia Corporation, priority 2007, published 2010).

How the values were obtained:
[1] = parameters: dose or concentration left out as unconfirmed; conditions: dosages as high as (Harris et al. 1992)
[2] = test system: patients with mitochondrial disorders; conditions: short-term study, creatine supplementation (Tarnopolsky et al. 1997)
[3] = test system: brain slice cultures; conditions: 20 mM creatine, brain slice cultures (Li et al. 2004)

CN(CC(=O)O)C(=N)N [creatine, 2-(carbamimidoyl-methyl-amino) acetic acid]
side effects [1]: no reported side effects
high-intensity anaerobic and aerobic activities [2]: improved
lower-intensity aerobic activities [2]: no effect
mitochondrial activity [3]: sufficient to stimulate mitochondrial activity
